These results are taken from article doi:10.1101/2021.10.07.463234v2 (biorxiv, 2021).

The target of this test is SARS-CoV-2 Mac1 (Severe acute respiratory syndrome coronavirus 2, UniProt P0DTD1). In words: biochemical. As to conditions: for inhibition at 100 µM: read-out: %inhibition; for %inhibition: 100 µM, inhibitor.

Counter-ions that a name gives are not always drawn.

One may read the inhibition as the relative decrease from the control value, in per cent. Take `C#C[C@]1(O)C=C[C@H]2[C@@H]3CCC4=CC(=O)CC[C@@H]4[C@H]3CC[C@@]21CC` [Gestodene]: the inhibition at 100 µM was 0%.
`Oc1cc(O)c(Cl)cn1` [Gimeracil]: the inhibition at 100 µM was 0%.
In the case of `O=C(OCC(O)CO)c1ccccc1Nc1ccnc2cc(Cl)ccc12` (stereo not drawn) [Glafenine HCl], the inhibition at 100 µM was determined as 16.2%.
On to `CCC1=C(C)CN(C(=O)NCCc2ccc(S(=O)(=O)NC(=O)N[C@H]3CC[C@H](C)CC3)cc2)C1=O` [Glimepiride], for which the inhibition at 100 µM came to 22.5%.
Turning to `Cc1cnc(C(=O)NCCc2ccc(S(=O)(=O)NC(=O)NC3CCCCC3)cc2)cn1` [Glipizide], the inhibition at 100 µM stood at 19.9%.
Consider `N[C@H]1C(O)O[C@H](CO)[C@@H](O)[C@@H]1O` (stereo partly drawn) [Glucosamine hydrochloride], for which the inhibition at 100 µM stood at 0%.
`N[C@@H](CCC(=O)N[C@@H](CS)C(=O)NCC(=O)O)C(=O)O` [Glutathione]: the inhibition at 100 µM came to 0%.
Still for that read-out and setting: next, `COc1ccc(Cl)cc1C(=O)NCCc1ccc(S(=O)(=O)NC(=O)NC2CCCCC2)cc1` [Glyburide (Glibenclamide)]: 8.25%.
In the case of `NCC(=O)O` [Glycine], the inhibition at 100 µM was found to be 0%.
As to `C[N+]1(C)CCC(OC(=O)C(O)(c2ccccc2)C2CCCC2)C1` (stereo not drawn) [Glycopyrrolate], the inhibition at 100 µM was found to be 0%.
Consider `CC(C)C[C@H](NC(=O)CNC(=O)[C@H](Cc1ccc(O)cc1)NC(=O)[C@H](CO)NC(=O)[C@H](Cc1c[nH]c2ccccc12)NC(=O)[C@H](Cc1cnc[nH]1)NC(=O)[C@@H]1CCC(=O)N1)C(=O)N[C@@H](CCCNC(=N)N)C(=O)N1CCC[C@H]1C(=O)NCC(N)=O` [Gonadorelin Acetate], for which the inhibition at 100 µM was 0%.
Usually %inhibition stands for the change of the read-out against control, counted positive when it falls. A higher %inhibition goes with a response far below the control. Regarding `CN1[C@@H]2CCC[C@H]1C[C@@H](NC(=O)c1nn(C)c3ccccc13)C2` [Granisetron HCl], the “%inhibition” value is 0%.
With `CN1[C@@H]2CCC[C@H]1C[C@@H](NC(=O)c1nn(C)c3ccccc13)C2` [Granisetron], the “%inhibition” value amounted to 0.5264%.
Turning to `C=C[C@@H]1C[C@]1(NC(=O)[C@@H]1C[C@@H]2CN1C(=O)[C@H](C(C)(C)C)NC(=O)O[C@@H]1C[C@H]1CCCCCc1nc3ccc(OC)cc3nc1O2)C(=O)NS(=O)(=O)C1CC1` [Grazoprevir], the inhibition at 100 µM was determined as 0%.
In the case of `COC1=CC(=O)C[C@@H](C)[C@]12Oc1c(Cl)c(OC)cc(OC)c1C2=O` [Griseofulvin], the inhibition at 100 µM was found to be 0%.
For the compound `COc1ccccc1O` [Guaiacol], the inhibition at 100 µM was found to be 0%.
`COc1ccccc1OCC(O)CO` (stereo not drawn) [Guaifenesin]: the inhibition at 100 µM amounted to 33.3%.
With `N=C(N)N/N=C/c1c(Cl)cccc1Cl` [Guanabenz Acetate], the inhibition at 100 µM came to 0%.
`N=C(N)NCCN1CCCCCCC1` [Guanethidine Monosulfate]: the “%inhibition” value is recorded as 5.593%.
For `N=C(N)NCCN1CCCCCCC1` [Guanethidine Sulfate], the “%inhibition” value came out at 0%.
Regarding `N=C(N)NC(=O)Cc1c(Cl)cccc1Cl` [Guanfacine Hydrochloride], the inhibition at 100 µM is 0%.
Same read-out and setting: next, `N=C(N)N` [Guanidine HCl]: 14%; `CC1(C)O[C@@H]2C[C@H]3[C@@H]4CCC5=CC(=O)CC[C@]5(C)[C@@]4(F)[C@@H](O)C[C@]3(C)[C@]2(C(=O)CCl)O1` [Halcinonide]: 25.9%.
The same measure, in the same setting: under `CCC(=O)O[C@]1(C(=O)CCl)[C@@H](C)C[C@H]2[C@@H]3C[C@H](F)C4=CC(=O)C=C[C@]4(C)[C@@]3(F)[C@@H](O)C[C@@]21C` [Halobetasol Propionate] stands 24.3%; under `FC(F)(F)C(Cl)Br` (stereo not drawn) [Halothane], 0%.
Consider `Oc1c(Cl)cc(Cl)c(Cl)c1Cc1c(O)c(Cl)cc(Cl)c1Cl` [Hexachlorophene], for which the inhibition at 100 µM is 0%.
Same read-out and setting: under `C[N+](C)(C)CCCCCC[N+](C)(C)C` [Hexamethonium?Dibromide] stands 0%; under `CC[C@H](c1ccc(O)cc1)[C@@H](CC)c1ccc(O)cc1` [Hexestrol], 0%; under `CCCCCCc1ccc(O)cc1O` [Hexylresorcinol], 0%.
Consider `NCCc1c[nH]cn1` [Histamine 2HCl], for which the “%inhibition” value is recorded as 6.627%.
Still for that read-out and setting: under `NCCc1c[nH]cn1` [Histamine Phosphate] stands 0%.
Regarding `C[N+]1(C)[C@@H]2CC[C@H]1C[C@@H](OC(=O)C(O)c1ccccc1)C2` (stereo partly drawn) [Homatropine Methylbromide], the inhibition at 100 µM worked out at 0%.
For the compound `NNc1nncc2ccccc12` [Hydralazine HCl], the inhibition at 100 µM came out at 6.58%.
Turning to `CC(=O)OCC(=O)[C@@]1(O)CC[C@H]2[C@@H]3CCC4=CC(=O)CC[C@]4(C)[C@H]3[C@@H](O)C[C@@]21C` [Hydrocortisone acetate], the inhibition at 100 µM was found to be 0%.
Turning to `C[C@]12CCC(=O)C=C1CC[C@@H]1[C@@H]2[C@@H](O)C[C@@]2(C)[C@H]1CC[C@]2(O)C(=O)CO` [Hydrocortisone], the inhibition at 100 µM stood at 5.07%.
`CC[C@H]1CN2CC[C@H]1C[C@@H]2[C@@H](O)c1ccnc2ccc(OC)cc12` [Hydroquinidine]: the inhibition at 100 µM was determined as 4.48%.
Same read-out and setting: under `Oc1ccc(O)cc1` [Hydroquinone] stands 7.86%.
Consider `CCN(CCO)CCCC(C)Nc1ccnc2cc(Cl)ccc12` (stereo not drawn) [Hydroxychloroquine Sulfate], for which the “%inhibition” value was 0%.
Turning to `CC(O)c1ccc(S(=O)(=O)NC(=O)NC2CCCCC2)cc1` (stereo not drawn) [Hydroxyhexamide], the inhibition at 100 µM was 28%.
In the case of `CCCCCC(=O)O[C@]1(C(C)=O)CC[C@H]2[C@@H]3CCC4=CC(=O)CC[C@]4(C)[C@H]3CC[C@@]21C` [Hydroxyprogesterone caproate], the inhibition at 100 µM came out at 8.48%.
For the compound `NC(=O)NO` [Hydroxyurea], the inhibition at 100 µM was determined as 20.8%.
Regarding `OCCOCCN1CCN(C(c2ccccc2)c2ccc(Cl)cc2)CC1` (stereo not drawn) [Hydroxyzine 2HCl], the inhibition at 100 µM came to 11.4%.
In the case of `CN[C@H]1C[C@@H](N)[C@H](O)[C@@H](O[C@@H]2O[C@H](CO)[C@H](O)[C@@H]3OC4(O[C@H]23)O[C@H]([C@@H](N)CO)[C@H](O)[C@H](O)[C@H]4O)[C@@H]1O` (stereo partly drawn) [Hygromycin B], the inhibition at 100 µM turned out to be 0%.
As to `CCCCCN(C)CCC(O)(P(=O)(O)O)P(=O)(O)O` [Ibandronate sodium], the inhibition at 100 µM was found to be 4.37%.
As to `C=CC(=O)N1CCC[C@@H](n2nc(-c3ccc(Oc4ccccc4)cc3)c3c(N)ncnc32)C1` [Ibrutinib (PCI-32765)], the inhibition at 100 µM was 6.43%.
For `CC(C)C(=O)c1c(C(C)C)nn2ccccc12` [Ibudilast], the inhibition at 100 µM is 0%.
Take `CC(C)Cc1ccc(C(C)C(=O)O)cc1` (stereo not drawn) [Ibuprofen]: the inhibition at 100 µM came to 0%.
Turning to `CCCCCCCN(CC)CCCC(O)c1ccc(NS(C)(=O)=O)cc1` (stereo not drawn) [Ibutilide Fumarate], the inhibition at 100 µM was 0%.
Take `C#Cc1cccc(Nc2ncnc3cc4c(cc23)OCCOCCOCCO4)c1` [Icotinib]: the inhibition at 100 µM came to 15.2%.
Still for that read-out and setting: under `COc1cc(C(=O)O)ccc1NC(=O)[C@@H]1N[C@@H](CC(C)(C)C)[C@](C#N)(c2ccc(Cl)cc2F)[C@H]1c1cccc(Cl)c1F` [Idasanutlin (RG-7388)] stands 0%; under `COC1=C(OC)C(=O)C(CCCCCCCCCCO)=C(C)C1=O` [Idebenone], 7.11%; under `CC[C@H](Nc1ncnc2[nH]cnc12)c1nc2cccc(F)c2c(=O)n1-c1ccccc1` [Idelalisib (CAL-101, GS-1101)], 0%.
`O=c1[nH]c(=O)n([C@H]2C[C@H](O)[C@@H](CO)O2)cc1I` [Idoxuridine]: the inhibition at 100 µM worked out at 44.1%.
Turning to `O=C1C2CC3CC1CC(O)(C3)C2` [Idramantone], the inhibition at 100 µM turned out to be 3.83%.
`CC(C(O)c1ccc(O)cc1)N1CCC(Cc2ccccc2)CC1` (stereo not drawn) [Ifenprodil Tartrate]: the inhibition at 100 µM is 34.6%.
Take `O=P1(NCCCl)OCCCN1CCCl` (stereo not drawn) [Ifosfamide]: the inhibition at 100 µM is 10.6%.
For `CS(=O)(=O)Nc1cc2occ(NC=O)c(=O)c2cc1Oc1ccccc1` [Iguratimod], the inhibition at 100 µM came out at 4.14%.
Take `CNC(=O)[C@H](Cc1c[nH]c2ccccc12)NC(=O)[C@@H](CC(=O)NO)CC(C)C` [Ilomastat (GM6001, Galardin)]: the inhibition at 100 µM came out at 21%.
On the same count and under the same terms, under `COc1cc(C(C)=O)ccc1OCCCN1CCC(c2noc3cc(F)ccc23)CC1` [Iloperidone] stands 0%; under `Cc1nccn1CCC(C(N)=O)(c1ccccc1)c1ccccc1` [Imidafenacin], 8.33%; under `CCOC(=O)[C@H](CCc1ccccc1)N[C@@H](C)C(=O)N1C(=O)N(C)C[C@H]1C(=O)O` [Imidapril HCl], 0%.
With `C[C@@H](O)[C@H]1C(=O)N2C(C(=O)O)=C(SCCNC=N)C[C@H]12` [Imipenem], the inhibition at 100 µM was 9.79%.
Consider `CN(C)CCCN1c2ccccc2CCc2ccccc21` [Imipramine HCl], for which the inhibition at 100 µM worked out at 2.2%.
Regarding `CC(C)Cn1cnc2c(N)nc3ccccc3c21` [Imiquimod], the inhibition at 100 µM turned out to be 26.3%.
As to `CCc1cc2c(cc1CC)CC(NC[C@H](O)c1ccc(O)c3[nH]c(=O)ccc13)C2` [Indacaterol Maleate], the “%inhibition” value is recorded as 2.994%.
On to `CCc1cc2c(cc1CC)CC(NC[C@H](O)c1ccc(O)c3[nH]c(=O)ccc13)C2` [Indacaterol], for which the “%inhibition” value worked out at 1.05%.
For the compound `CC1Cc2ccccc2N1NC(=O)c1ccc(Cl)c(S(N)(=O)=O)c1` (stereo not drawn) [Indapamide], the inhibition at 100 µM is 36.3%.
On the same count and under the same terms, under `O=C1/C(=C2\Nc3ccc(S(=O)(=O)O)cc3C2=O)Nc2ccc(S(=O)(=O)O)cc21` [Indigo carmine] stands 39.3%; under `O=C1/C(=C2\Nc3ccccc3C2=O)Nc2ccccc21` [Indigo], 9.76%.
For `COc1ccc2c(c1)c(CC(=O)O)c(C)n2C(=O)c1ccc(Cl)cc1` [Indometacin Sodium], the “%inhibition” value was found to be 0%.
For the compound `COc1ccc2c(c1)c(CC(=O)O)c(C)n2C(=O)c1ccc(Cl)cc1` [Indomethacin], the “%inhibition” value was 39.29%.
Regarding `NC(=O)c1ccc(I)c([N+](=O)[O-])c1` [Iniparib (BSI-201)], the inhibition at 100 µM amounted to 31%.
